Results on 2 molecules are retold here after US9365572B2, “PI3K and/or mTOR inhibitor” (XUANZHU PHARMA CO., LTD., priority 2012, dated 2016).

The subject of data set [1] is kinases listed in Table 3. Briefly: Kinase selectivity, whole panel of Table 3. It counts as biochemical. As to conditions: summary in words. The method, then: Object: In this assay, the inhibitory activity of the test substance on the kinases listed in Table 3 was determined, and therefore the selectivity of the present compound was determined.
Except for the BRAF V600E kinase in Table 3, the Mobility shift assay was used for other kinases.
• 1.1 1-fold kinase buffer without MnCl2: 50 mM HEPES, pH 7.5, 0.0015% Brij-35, 10 mM MgCl2, 2 mM DTT. • 1.2 1-fold kinase buffer with MnCl2: 50 mM HEPES, pH 7.5, 0.0015% Brij-35, 10 mM MgCl2, 10 mM MnCl2, 2 mM DTT. • 1.3 Termination solution: 100 mM HEPES, pH 7.5, 0.0015% Brij-35, 0.2% Coating Reagent#3, 50 mM EDTA. • 1.4 2.5-fold kinase solution: The kinase was added to the 1-fold kinase buffer to form a 2.5-fold kinase solution. • 1.5 2.5-fold substrate solution: FAM fluorescence-labelled polypeptide and ATP were added to the 1-fold kinase buffer to form a 2.5-fold substrate solution. 2. Preparation of 5-fold compound
The final test concentration of the compound was 10 μM at maximum. Firstly, a 50-fold concentration (i.e. 500 μM) was prepared with 100% DMSO. The compound was diluted with 100% DMSO by 5 folds at 5 concentrations (successively 500 μM, 100 μM, 20 μM, 4 μM, and 0.8 μM). […]
• 3.1 To the 384-well reaction plate was added 5-fold compound dissolved in 10% DMSO at 5 μl/well. • 3.2 To the 384-well reaction plate was added 2.5-fold kinase solution at 10 μl/well. […] The conversion was read from Caliper. […]

Data set [2] in a line: In vivo pharmacokinetics assay in rat. As to conditions: male, SD, plasma, rats; for Vd: read-out: Vss; for bioavailability: P.O 4 mg/kg vs I.V 2 mg/kg, read-out: F % (absolute bioavailability). An excerpt: Test animals: male SD rats, weighing 190-260 g. Intravenous bolus injection (I.V.) and gavage (P.O.) administrations were each applied to three rats.
Compound 5, for both I.V and P.O administrations, was solubilized with a solution of 30% DMF+50% PEG400+20%(0.9% sodium chloride injection)(the pH being adjusted with a suitable amount of an aqueous hydrochloric acid solution (2 mol/L)).
Compound 6, for both I.V and P.O administrations, was solubilized with a solution of 30% DMF+30% PEG400+5%0.1 mol/lhydrochloric acid+[…] normal saline.
Compound 30 for I.V administration was solubilized with a solution of 30% DMF+50% PEG400+20% normal saline; Compound 30 for P.O administration was solubilized with a solution of 5% DMSO+30% polyoxyethylene castor oil+65% normal saline.
Compound 30 hydrochloride for I.V administration was solubilized with a solution of 30% DMF+50% PEG400+20% sterile water for injection.
I.V blood sampling time point: 0.083 h, 0.25 h, 0.5 h, 1 h, 2 h, 4 h, 6 h, 8 h and 24 h after the administration, P.O blood sampling time point: 0.17 h, 0.5 h, 1 h, 2 h, 4 h, 6 h, 8 h and 24 h after the administration.
About 100 μl of whole blood was taken at each time point, anticoagulated with heparin sodium, and centrifugated at 8,000 rpm in a high-speed centrifuge for 6 minutes to separate plasma, and the resulting plasma was frozen at −80° C. in a refrigerator.
The plasma sample was treated with a liquid-liquid extraction. 20 μL of plasma was taken. A solution of BEZ-235 (Novartis, Phase II) in tertbutylmethylether (600 μL, 10 ng/mL) was added as internal standard. The mixture was rotated vertically at 1500 rpm for 10 mins and then centrifugated at 12000 rpm for 5 mins. 400 μL of the supernate was taken and dried under nitrogen. The dried substance was redissolved in 200 μL methanol:water (7:3, V/V) for LC-MS/MS analysis.
Calculation Absolute bioavailability F%=[AUC]last (P.O)*Dose(I.V)/[AUC]last (I.V)*Dose(P.O)

The next data set concerns the target GABAB1A (Homo sapiens (Human), UniProt Q9UBS5). Briefly: Radioligand binding assay No. 228610. As to conditions: test substance 10 μM, read-out: Inhibitory rate (%), GABAB1A.
In the next data set the target is Bradykinin B2 (Homo sapiens (Human), UniProt P30411). Briefly: Radioligand binding assay No. 212620. Particulars: test substance 10 μM, read-out: Inhibitory rate (%), Bradykinin B2.
Chain of Bradykinin B2 (P30411 whole entry): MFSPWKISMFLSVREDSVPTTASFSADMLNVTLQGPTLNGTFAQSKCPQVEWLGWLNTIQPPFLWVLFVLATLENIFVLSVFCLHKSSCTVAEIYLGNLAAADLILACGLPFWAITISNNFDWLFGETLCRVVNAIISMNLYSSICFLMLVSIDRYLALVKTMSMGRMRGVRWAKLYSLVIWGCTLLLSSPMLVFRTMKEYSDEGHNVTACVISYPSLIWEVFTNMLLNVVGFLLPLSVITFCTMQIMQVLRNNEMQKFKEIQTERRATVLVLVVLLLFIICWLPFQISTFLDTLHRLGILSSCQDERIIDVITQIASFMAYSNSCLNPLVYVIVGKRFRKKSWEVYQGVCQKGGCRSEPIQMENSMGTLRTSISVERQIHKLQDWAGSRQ

Chain of GABAB1A (Q9UBS5 15-961): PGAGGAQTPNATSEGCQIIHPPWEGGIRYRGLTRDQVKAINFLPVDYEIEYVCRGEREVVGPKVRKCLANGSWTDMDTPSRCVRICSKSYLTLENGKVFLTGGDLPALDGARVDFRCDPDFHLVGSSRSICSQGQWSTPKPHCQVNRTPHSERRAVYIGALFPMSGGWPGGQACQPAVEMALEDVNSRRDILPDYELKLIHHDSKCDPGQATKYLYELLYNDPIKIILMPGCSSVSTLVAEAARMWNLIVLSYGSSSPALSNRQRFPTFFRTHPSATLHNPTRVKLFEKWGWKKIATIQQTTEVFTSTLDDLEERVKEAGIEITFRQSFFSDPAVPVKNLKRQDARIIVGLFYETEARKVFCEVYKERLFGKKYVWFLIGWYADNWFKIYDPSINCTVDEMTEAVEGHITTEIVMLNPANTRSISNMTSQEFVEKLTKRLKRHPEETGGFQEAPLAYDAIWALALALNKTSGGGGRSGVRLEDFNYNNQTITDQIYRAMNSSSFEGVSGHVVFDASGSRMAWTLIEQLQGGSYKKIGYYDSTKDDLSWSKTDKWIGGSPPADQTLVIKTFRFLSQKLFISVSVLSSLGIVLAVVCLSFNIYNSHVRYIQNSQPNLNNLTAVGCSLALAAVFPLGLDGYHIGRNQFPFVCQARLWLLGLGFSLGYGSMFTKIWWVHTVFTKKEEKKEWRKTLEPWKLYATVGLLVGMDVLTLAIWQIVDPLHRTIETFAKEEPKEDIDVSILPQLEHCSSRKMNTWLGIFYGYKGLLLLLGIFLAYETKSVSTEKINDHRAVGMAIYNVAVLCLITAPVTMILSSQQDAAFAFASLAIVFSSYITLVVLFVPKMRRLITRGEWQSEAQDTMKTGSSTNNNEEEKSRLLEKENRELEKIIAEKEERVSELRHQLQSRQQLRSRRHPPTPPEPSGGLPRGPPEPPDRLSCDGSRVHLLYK

In general, AUC(0-inf) refers to total exposure, with the tail of the curve extrapolated. Higher therefore signals more exposure. One may read the AUC(0-t) as the area under the concentration-time curve up to a stated or last time point. Lower therefore signals less exposure. As a reminder, the clearance is the volume of plasma or blood freed of the substance per unit of time. A lower clearance goes with a low capacity for elimination. Broadly, the half-life is how long it takes for the measured level to halve. The low end stands for fast loss, the high end for slow loss. Usually bioavailability stands for dose-corrected exposure relative to a reference, in per cent. In general, Cmax refers to the maximum level reached in the sampled fluid or tissue. A word on the Tmax: it is the time at which the peak concentration occurs. Consider `Nc1ccc(-c2ccc3ncc4c(=O)[nH]c(=O)n(-c5cccc(C(F)(F)F)c5)c4c3n2)cn1` [Compound 5, 9-(6-aminopyridin-3-yl)-1-(3-(trifluoromethyl)phenyl)pyrimido[5,4-c][1,5]naphthyridine-2,4(1H,3H)-dione], for which the “inhibitory activity for the kinases listed in Table 3” value in data set [1] is reported as “no inhibitory activity”. In data set [2] (iv, I.V, 2 mg/kg), this molecule showed an AUC(0-inf) of 9360 ng·h/mL, an exposure AUC(0-t) of 9130 ng·h/mL, a clearance of 3.5 mL/min/kg and a half-life of 4.72 h. Also, the Vd in data set [2] (iv, I.V, 2 mg/kg) stood at 1.26 L/kg. The bioavailability in data set [2] (po) came out at 14%. Also, in data set [2] (po, P.O, 4 mg/kg), the AUC(0-inf) came to 2590 ng·h/mL, the exposure AUC(0-t) came out at 2550 ng·h/mL, the peak level (Cmax) was 205 ng/mL and the Tmax was 6 h. Moreover, the half-life in data set [2] (po, P.O, 4 mg/kg) was 5.77 h. For the same molecule, the inhibition at 10 µM on GABAB1A turned out to be 15%. Besides, at Bradykinin B2, the inhibition at 10 µM is 24%.
As for `O=c1[nH]c(=O)n(-c2cccc(C(F)(F)F)c2)c2c1cnc1ccc(-c3cnc4[nH]ccc4c3)nc12` [Compound 30, 9-(1H-pyrrolo[2,3-b]pyridin-5-yl)-1-(3-(trifluoromethyl)phenyl)pyrimido[5,4-c][1,5]naphthyridine-2,4(1H,3H)-dione], in data set [2] (iv, I.V, 2 mg/kg), the total exposure AUC(0-inf) came out at 3070 ng·h/mL, the AUC(0-t) worked out at 3050 ng·h/mL, the clearance was 11 mL/min/kg and the half-life was 3.89 h. Moreover, in data set [2] (iv, I.V, 2 mg/kg), the Vd turned out to be 1.85 L/kg. Besides, in data set [2] (po), the bioavailability was 12.8%. Also, in data set [2] (po, P.O, 4 mg/kg), the area under the curve AUC(0-inf) was determined as 785 ng·h/mL, the area under the curve AUC(0-t) amounted to 654 ng·h/mL, the concentration peaked (Cmax) at 54.8 ng/mL and the time of peak concentration (Tmax) worked out at 2 h. Besides, in data set [2] (po, P.O, 4 mg/kg), the half-life was 9.42 h.
